Assay results: patent publication US10035794B2, “Heterocyclic derivatives and their use in the treatment of neurological disorders” (NOVARTIS AG, priority 2011, dated 2018)
Where a name gives a salt, the structure may show the parent alone.

Test: Test 4: Inhibition of Cellular Release of Amyloid Peptide 1-40
Assay type: cell-based, Chinese hamster
Conditions: Cricetulus griseus, CHO, 24 h; read-out: Amyloid-β1-40 release IC50
Description: Chinese hamster ovary cells are transfected with the human gene for amyloid precursor protein. The cells are plated at a density of 8000 cells/well into 96-well microtiter plates and cultivated for 24 hours in DMEM cell culture medium containing 10% FCS. The test compound is added to the cells at various concentrations, and the cells are cultivated for 24 hours in the presence of the test compound.

Structure (SMILES) | IC50 [nM]
C[C@@]1(c2nc(NC(=O)c3nc4ccn(CC(F)F)c4nc3N)ccc2F)CO[C@@](C)(C(F)(F)F)C(N)=N1 [Example 45, 3-Amino-5-(2,2-difluoro-ethyl)-5H-pyrrolo[2,3-b]pyrazine-2-carboxylic acid [6-((3R,6R)-5-amino-3,6-dimethyl-6-trifluoromethyl-3,6-dihydro-2H-[1,4]oxazin-3-yl)-5-fluoro-pyridin-2-yl]amide] | 3600
Cc1cc(OCF)cnc1C(=O)Nc1ccc(F)c([C@]2(C)CO[C@@](C)(C(F)(F)F)C(N)=N2)n1 [Example 32, 5-Fluoromethoxy-3-methyl-pyridine-2-carboxylic acid [6-((3R,6R)-5-amino-3,6-dimethyl-6-trifluoromethyl-3,6-dihydro-2H-[1,4]oxazin-3-yl)-5-fluoro-pyridin-2-yl]amide] | 26
C[C@]1(c2cccc(NC(=O)c3ccc(C#N)cn3)n2)CO[C@@](C)(C(F)(F)F)C(N)=N1 [Example 9, 5-Cyano-pyridine-2-carboxylic acid [6-((3S,6R)-5-amino-3,6-dimethyl-6-trifluoromethyl-3,6-dihydro-2H-[1,4]oxazin-3-yl)-pyridin-2-yl]-amide] | 1900
Cc1cnc(C(=O)Nc2ccc(F)c([C@]3(C)CO[C@@](C)(C(F)(F)F)C(N)=N3)n2)cn1 [Example 33, 5-Methyl-pyrazine-2-carboxylic acid [6-((3R,6R)-5-amino-3,6-dimethyl-6-trifluoromethyl-3,6-dihydro-2H-[1,4]oxazin-3-yl)-5-fluoro-pyridin-2-yl]amide] | 130
Cc1cc(C#N)cnc1C(=O)Nc1ccc(F)c([C@@]2(C(F)F)COCC(N)=N2)n1 [Example 39, 5-Cyano-3-methyl-pyridine-2-carboxylic acid [6-((S)-5-amino-3-difluoromethyl-3,6-dihydro-2H-[1,4]oxazin-3-yl)-5-fluoro-pyridin-2-yl]-amide] | 290
[2H]c1nc(C(=O)Nc2cccc([C@]3(C)CO[C@@](C)(C(F)(F)F)C(N)=N3)n2)c(C([2H])([2H])[2H])c([2H])c1Cl [Example 21, 5-Chloro-4,6-dideuterio-3-trideuteriomethyl-pyridine-2-carboxylic acid [6-((3R,6R)-5-amino-3,6-dimethyl-6-trifluoromethyl-3,6-dihydro-2H-[1,4]oxazin-3-yl)-pyridin-2-yl]-amide] | 110
COCCn1ccc2nc(C(=O)Nc3ccc(F)c([C@]4(C)CO[C@@](C)(C(F)(F)F)C(N)=N4)n3)c(N)nc21 [Example 43, 3-Amino-5-(2-methoxy-ethyl)-5H-pyrrolo[2,3-b]pyrazine-2-carboxylic acid [6-((3R,6R)-5-amino-3,6-dimethyl-6-trifluoromethyl-3,6-dihydro-2H-[1,4]oxazin-3-yl)-5-fluoro-pyridin-2-yl]amide] | 370
Cc1cc(C#N)cnc1C(=O)Nc1cc([C@]2(C)COC(CF)(CF)C(N)=N2)c(F)cn1 [Example 37, 5-Cyano-3-methyl-pyridine-2-carboxylic acid [4-((R)-5-amino-6,6-bis-fluoromethyl-3-methyl-3,6-dihydro-2H-[1,4]oxazin-3-yl)-5-fluoro-pyridin-2-yl]-amide] | 83
NC1=NC(CF)(c2cc(NC(=O)c3ccc(Br)cn3)cnc2Cl)COC1 (stereo not drawn) [Example 18, 5-Bromo-pyridine-2-carboxylic acid [5-(5-amino-3-fluoromethyl-3,6-dihydro-2H-[1,4]oxazin-3-yl)-6-chloro-pyridin-3-yl]-amide hydrochloride] | 15
C[C@@]1(c2cc(NC(=O)c3ncc(C#N)cc3Cl)ncc2F)CO[C@@](C)(C(F)(F)F)C(N)=N1 [Example 35, 3-Chloro-5-cyano-pyridine-2-carboxylic acid [4-((3R,6R)-5-amino-3,6-dimethyl-6-trifluoromethyl-3,6-dihydro-2H-[1,4]oxazin-3-yl)-5-fluoro-pyridin-2-yl]-amide] | 140
C[C@@]1(c2cccc(NC(=O)c3ccc(Br)cn3)n2)COCC(N)=N1 [Example 1, 5-Bromo-pyridine-2-carboxylic acid [6-((R)-5-amino-3-methyl-3,6-dihydro-2H-[1,4]-oxazin-3-yl)-pyridin-2-yl]-amide] | 41
CC1(c2cccc(NC(=O)c3ccc(Br)cn3)n2)COCC(N)=N1 (racemic) [Example 2, 5-Bromo-pyridine-2-carboxylic acid [6-(5-amino-3-methyl-3,6-dihydro-2H-[1,4]-oxazin-3-yl)-pyridin-2-yl]-amide] | 58
[2H]c1nc(C(=O)Nc2cc(C3(CF)COCC(N)=N3)ccn2)c(C([2H])([2H])[2H])c([2H])c1Cl (stereo not drawn) [Example 13, 5-{2-[(5-Chloro-4,6-dideutero-3-trideuteromethyl-pyridine-2-carbonyl)-amino]-pyridin-4-yl}-5-fluoromethyl-5,6-dihydro-2H-[1,4]oxazin-3-yl-ammonium acetate] | 550
Cc1cc(C#N)cnc1C(=O)Nc1ccc(F)c([C@]2(C(F)F)COCC(N)=N2)n1 [Example 38, 5-Cyano-3-methyl-pyridine-2-carboxylic acid [6-((R)-5-amino-3-difluoromethyl-3,6-dihydro-2H-[1,4]oxazin-3-yl)-5-fluoro-pyridin-2-yl]-amide] | 5
Cc1cnc(C(=O)Nc2ccc(F)c([C@]3(C)CO[C@@](C)(C(F)(F)F)C(N)=N3)n2)c(C)n1 [Example 41, 3,5-Dimethyl-pyrazine-2-carboxylic acid [6-((3R,6R)-5-amino-3,6-dimethyl-6-trifluoromethyl-3,6-dihydro-2H-[1,4]oxazin-3-yl)-5-fluoro-pyridin-2-yl]amide] | 161
Cc1cc(C#N)cnc1C(=O)Nc1cc([C@@]2(C)CO[C@@](C)(C(F)(F)F)C(N)=N2)c(F)cn1 [Example 17, 5-Cyano-3-methyl-pyridine-2-carboxylic acid [4-((3S,6R)-5-amino-3,6-dimethyl-6-trifluoromethyl-3,6-dihydro-2H-[1,4]oxazin-3-yl)-5-fluoro-pyridin-2-yl]-amide] | 4800
Cc1cc(OC(F)F)cnc1C(=O)Nc1ccc(F)c([C@]2(C)CO[C@@](C)(C(F)(F)F)C(N)=N2)n1 [Example 29, 5-Difluoromethoxy-3-methyl-pyridine-2-carboxylic acid [6-((3R,6R)-5-amino-3,6-dimethyl-6-trifluoromethyl-3,6-dihydro-2H-[1,4]oxazin-3-yl)-5-fluoro-pyridin-2-yl]amide] | 24
N#Cc1cnc(C(=O)Nc2ccc(F)c([C@]3(C(F)F)COCC(N)=N3)n2)c(Cl)c1 [Example 40, 3-Chloro-5-cyano-pyridine-2-carboxylic acid [6-((R)-5-amino-3-difluoromethyl-3,6-dihydro-2H-[1,4]oxazin-3-yl)-5-fluoro-pyridin-2-yl]-amide] | 12
Cc1cc(C#N)cnc1C(=O)Nc1cccc([C@]2(C)CO[C@@](C)(C(F)(F)F)C(N)=N2)n1 [Example 8, 5-Cyano-3-methyl-pyridine-2-carboxylic acid [6-((3R,6R)-5-amino-3,6-dimethyl-6-trifluoro-methyl-3,6-dihydro-2H-[1,4]oxazin-3-yl)-pyridin-2-yl]-amide] | 6
C[C@@]1(c2nc(NC(=O)c3ncc(OCCCF)nc3N)ccc2F)CO[C@@](C)(C(F)(F)F)C(N)=N1 [Example 42, 3-Amino-5-(3-fluoro-propoxy)-pyrazine-2-carboxylic acid [6-((3R,6R)-5-amino-3,6-dimethyl-6-trifluoromethyl-3,6-dihydro-2H-[1,4]oxazin-3-yl)-5-fluoro-pyridin-2-yl]amide] | 72
Cc1cc(C#N)cnc1C(=O)Nc1ccc(F)c([C@@]2(C)CO[C@@](C)(C(F)(F)F)C(N)=N2)n1 [Example 12, 5-Cyano-3-methyl-pyridine-2-carboxylic acid [6-((3S,6R)-5-amino-3,6-dimethyl-6-trifluoromethyl-3,6-dihydro-2H-[1,4]oxazin-3-yl)-5-fluoro-pyridin-2-yl]-amide] | 280
C[C@@]1(c2cccc(NC(=O)c3ncc(C#N)cc3N)n2)CO[C@@](C)(C(F)(F)F)C(N)=N1 [Example 19, 3-Amino-5-cyano-pyridine-2-carboxylic acid [6-((3R,6R)-5-amino-3,6-dimethyl-6-trifluoromethyl-3,6-dihydro-2H-[1,4]oxazin-3-yl)-pyridin-2-yl]-amide] | 48
Cc1cc(C#N)cnc1C(=O)Nc1ccc(F)c([C@]2(C)CO[C@@](C)(C(F)(F)F)C(N)=N2)n1 [Example 11, 5-Cyano-3-methyl-pyridine-2-carboxylic acid [6-((3R,6R)-5-amino-3,6-dimethyl-6-trifluoromethyl-3,6-dihydro-2H-[1,4]oxazin-3-yl)-5-fluoro-pyridin-2-yl]-amide] | 2
C[C@@]1(c2cc(NC(=O)c3ncc(OC(F)F)cc3Cl)ncc2F)CO[C@@](C)(C(F)(F)F)C(N)=N1 [Example 36, 3-Chloro-5-difluoromethoxy-pyridine-2-carboxylic acid [4-((3R,6R)-5-amino-3,6-dimethyl-6-trifluoromethyl-3,6-dihydro-2H-[1,4]oxazin-3-yl)-5-fluoro-pyridin-2-yl]-amide] | 410
C[C@@]1(c2cccc(NC(=O)c3ncc(C#N)cc3Cl)n2)CO[C@@](C)(C(F)(F)F)C(N)=N1 [Example 20, 3-Chloro-5-cyano-pyridine-2-carboxylic acid [6-((3R,6R)-5-amino-3,6-dimethyl-6-trifluoromethyl-3,6-dihydro-2H-[1,4]oxazin-3-yl)-pyridin-2-yl]-amide] | 5
COc1cnc(C(=O)Nc2ccc(F)c([C@]3(C)CO[C@@](C)(C(F)(F)F)C(N)=N3)n2)c(C)c1 [Example 25, 5-Methoxy-3-methyl-pyridine-2-carboxylic acid [6-((3R,6R)-5-amino-3,6-dimethyl-6-trifluoromethyl-3,6-dihydro-2H-[1,4]oxazin-3-yl)-5-fluoro-pyridin-2-yl]amide] | 76
C[C@@]1(c2cccc(NC(=O)c3ccc(C#N)cn3)n2)CO[C@@](C)(C(F)(F)F)C(N)=N1 [Example 10, 5-Cyano-pyridine-2-carboxylic acid [6-((3R,6R)-5-amino-3,6-dimethyl-6-trifluoromethyl-3,6-dihydro-2H-[1,4]oxazin-3-yl)-pyridin-2-yl]-amide] | 17
